From US8481042B2, “Conjugates of pyrrolo[1,4]benzodiazepine dimers as anticancer agents” (priority 2009, dated 2013)

Assays:
Format in all cases: cell-based
HCT116 cells = test: Inhibition of the proliferation of HCT116 cells by compounds of formula IA (14C-thymidine pulse at 96 h); conditions: Homo sapiens, HCT-116; HCT116, 3 days culture, 14C-thymidine incorporation at 96 h
Experimental: (§1) Evaluation of the Inhibition of the Proliferation of the MDA-MB-231, MDA-A1 and HCT116 Cell Lines by the Compounds of Formula IA with ZbRb=−OMe and Y═Y′=−OMe
(§2) The MDA-MB-231, MDA-A1 or HCT116 cells in their exponential growth phase are trypsinized and resuspended in their respective culture medium (DMEM/F12 Gibco #21331, 10% FCS Gibco #10500-056, […] Gibco #25030 for the MDA cells; DMEM Gibco #11960, 10% FCS Gibco #10500-056, 2 mM glutamine Gibco #25030 for the HCT116 cells). The cell suspension is seeded in Cytostar 96-well culture plates (GE Healthcare Europe, #RPNQ0163) in the complete culture medium containing serum at a density of 5000 cells/well (MDA-MB-231, MDA-A1, HCT116). After incubation for 4 hours, successive dilutions of the tomaymycin dimers are added to the wells in triplicate for each concentration. The cells are cultured for 3 days at 37° C. under an atmosphere containing 5% CO2 in the presence of the cytotoxic agents. On the 4th day, 10 μl of a ^14C-thymidine solution (0.1 μCi/well, Perkin Elmer #NEC56825000) are added to each well. The incorporation of ^14C-thymidine is measured 96 hours after the start of the experiment using a MicroBeta radioactivity counter (Perkin Elmer). The data are expressed in the form of a % of survival by determining the ratio between the count obtained with the cells treated with the cytotoxic agent and the count obtained with the cells of the control wells (treated with the culture medium alone).

MDA-A1 cells = test: Inhibition of the proliferation of MDA-A1 cells by compounds of formula IA (14C-thymidine pulse at 96 h); conditions: MDA-A1, 3 days culture, 14C-thymidine incorporation at 96 h
Experimental: as §1, §2

MDA-MB-231 cells = test: Inhibition of the proliferation of MDA-MB-231 cells by compounds of formula IA (14C-thymidine pulse at 96 h); conditions: Homo sapiens; MDA-MB-231, 3 days culture, 14C-thymidine incorporation at 96 h; read-out: Inhibition of the proliferation (14C-thymidine pulse at 96 h) IC50 MDA-MB231
Experimental: as §1, §2

Structure (SMILES): C/C=C1\C[C@H]2C=Nc3cc(OCc4cc(OCCN(C)CC(C)(C)SCC(=O)NCCOCCOCCOCCOCCC(=O)OC)cc(COc5cc6c(cc5OC)C(=O)N5C/C(=C/C)C[C@H]5C=N6)n4)c(OC)cc3C(=O)N2C1
- IC50 (HCT116 cells): 0.03 nM
- IC50 (MDA-A1 cells): 1.99 nM
- IC50 (MDA-MB-231 cells): 0.009 nM

Structure (SMILES): C/C=C1\C[C@H]2C=Nc3cc(OCc4cc(OCCN(C)CC(C)(C)SCC(=O)N(C)CCOCCOCCOCCOCCC(=O)OC)cc(COc5cc6c(cc5OC)C(=O)N5C/C(=C/C)C[C@H]5C=N6)n4)c(OC)cc3C(=O)N2C1
- IC50 (HCT116 cells): 0.12 nM
- IC50 (MDA-A1 cells): 2.26 nM
- IC50 (MDA-MB-231 cells): 0.07 nM

Structure (SMILES): C/C=C1\C[C@H]2C=Nc3cc(OCc4cc(COc5cc6c(cc5OC)C(=O)N5C/C(=C/C)C[C@H]5C=N6)cc(C(C)(C)SCC(=O)NCCOCCOCCOCCOCCC(=O)OC)c4)c(OC)cc3C(=O)N2C1
- IC50 (HCT116 cells): 0.127 nM
- IC50 (MDA-A1 cells): > 10 nM
- IC50 (MDA-MB-231 cells): 0.084 nM

Structure (SMILES): C/C=C1\C[C@H]2C=Nc3cc(OCc4cc(OCCN5CCN(C(=O)CCC(C)(C)SCC(=O)NCCOCCOCCOCCOC(=O)OC)CC5)cc(COc5cc6c(cc5OC)C(=O)N5C/C(=C/C)C[C@H]5C=N6)n4)c(OC)cc3C(=O)N2C1
- IC50 (HCT116 cells): 1.25 nM
- IC50 (MDA-A1 cells): > 10 nM
- IC50 (MDA-MB-231 cells): 0.45 nM
